Test results: patent US12631645B2, “Detection of BCL-2 family heterodimer complexes and use thereof” (The U.S.A., as represented by the Secretary, Department of …, priority 2019, dated 2026)

Columns and labels:
[1] = tested on: BAK-BAX oligomerization; assay: Heterodimer complexes in AMO-1 xenograft tumor lysates after treatment, BAK-BAX; format: in vivo, mice; conditions: 16 hours after treatment, 100 mg/kg orally (FIG. 7A)
Method: The immunoassays described herein were built on the Luminex xMAP multiplex technology platform using magnetic bead capture. Washes were performed with a 96-well magnetic plate washer (ELx405), BioTek). During incubation, the plates were placed on an orbital titer plate shaker (VWR International). Liquid handling was performed manually with calibrated, adjustable, precision multichannel pipettes (Rainin 8-Channel). All assays were performed in 96-well plates (BioPlex, BioRad) at 25° C.±3° C. by adding 10 μL of blocking solution (Myriad RBM) and 30 μL of calibrator, control, or unknown sample. Antibody-coupled beads were sonicated for 5 seconds and then vortexed at medium speed for 10 to 20 seconds to disperse the beads, and 10 μL beads (250 beads/analyte/μL) were added to each well per analyte. Plates were protected from light (Black Microplate Lid, VWR) and incubated for 1 hour at 25° C.±3° C. with shaking. […] After a final wash, 100 μL of assay buffer was added to each well and plates were read on a Luminex 200 reader.
Heterodimer complexes were measured in AMO-1 and MV11 xenograft tumor lysates using the immunoassay described in Examples 3 and 4. […] The level of cleaved caspase-3 was also measured. […] Heterodimer composition was also measured in blood or bone marrow samples of 11 patients with CLL.

[2] = tested on: MV411 xenograft tumors; assay: Response of AML model MV411 to BH3 mimetic treatment; format: in vivo, mice; conditions: MV411 xenograft tumor lysates, 24 hours after treatment; NSC798846 25 mg/kg intravenously, NSC766270 100 mg/kg orally (FIG. 7B)
[3] = tested on: AMO-1 xenograft tumors; assay: Response of multiple myeloma model AMO-1 to BH3 mimetic treatment; format: in vivo, mice; conditions: 100 mg/kg orally, 16 hours (FIG. 7A)
[4] = tested on: AMO-1 cell line; conditions: read-out: IC50 (sensitivity to S63845), Kotschy et al., Nature 2016; cited from earlier work
[5] = tested on: AMO1 xenografts; conditions: intravenous injection; Kotschy et al.; cited from earlier work
[6] = tested on: MV4-11 human AML xenograft model; conditions: in vivo; compared with AMO1 xenografts; Kotschy et al.; cited from earlier work
[7] = tested on: BAX-BAK heterodimer; assay: Heterodimer immunoassay, BAX-BAK in lysates of treated cancer cell lines; format: cell-based, human; parameters: BAX-BAK heterodimers: dose or concentration left out as unconfirmed; conditions: for BAX-BAK levels: HCT116 and MOLT-4 cancer cell lines (FIG. 4C)
Method: (§1) The immunoassays described herein were built on the Luminex xMAP multiplex technology platform using magnetic bead capture. Washes were performed with a 96-well magnetic plate washer (ELx405), BioTek). During incubation, the plates were placed on an orbital titer plate shaker (VWR International). Liquid handling was performed manually with calibrated, adjustable, precision multichannel pipettes (Rainin 8-Channel). All assays were performed in 96-well plates (BioPlex, BioRad) at 25° C.±3° C. by adding 10 μL of blocking solution (Myriad RBM) and 30 μL of calibrator, control, or unknown sample. Antibody-coupled beads were sonicated for 5 seconds and then vortexed at medium speed for 10 to 20 seconds to disperse the beads, and 10 μL beads (250 beads/analyte/μL) were added to each well per analyte. Plates were protected from light (Black Microplate Lid, VWR) and incubated for 1 hour at 25° C.±3° C. with shaking. Plates were washed with wash solution (Myriad RBM), and then 40 μL of detection antibody-biotin conjugate was added and plates were incubated for an additional hour with shaking. After incubation with the antibody-biotin conjugate, 40 μL of R-phycoerythrin-labeled streptavidin (Invitrogen) was added, and plates were incubated for 30 minutes with shaking. After a final wash, 100 μL of assay buffer was added to each well and plates were read on a Luminex 200 reader.
(§2) Further studies were conducted to evaluate the effect of BH3 mimetics on Bcl-2 family heterodimer levels and induction of apoptosis.
(§3) Similar studies were performed in AMO-1 plasmacytoma cells and Mv4-11 acute myeloid leukemia cells. […] The level of cleaved caspase-3 was also determined.

[8] = biological target: T1, Bcl-2-BIM complexes (Homo sapiens, UniProt P10415); assay: Heterodimer complexes in AMO-1 xenograft tumor lysates after treatment, Bcl-2-BIM; format: in vivo, mice; conditions: 16 hours after treatment, NSC798846 25 mg/kg intravenously, NSC766270 100 mg/kg orally (FIG. 7A)
T1 construct: from tissue; host or cells: AMO-1 xenograft tumors grown in mice
T1 sequence (P10415 whole entry, one chain of several): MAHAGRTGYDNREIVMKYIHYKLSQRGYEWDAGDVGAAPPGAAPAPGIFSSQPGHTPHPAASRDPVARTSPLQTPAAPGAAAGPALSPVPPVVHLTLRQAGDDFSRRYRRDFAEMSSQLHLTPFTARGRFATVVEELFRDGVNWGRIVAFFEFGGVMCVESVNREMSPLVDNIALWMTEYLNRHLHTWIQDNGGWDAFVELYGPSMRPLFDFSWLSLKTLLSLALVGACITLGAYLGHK
Method: as §1

[9] = tested on: BIM; conditions: AMO-1 xenograft tumor lysates, 16 hours after 25 mg/kg intravenously (FIG. 7A)
Method: The effect of two different BH3 mimetics on heterodimer composition in the AMO-1 and MV411 models was next evaluated. […] Heterodimer complexes were measured in tumor lysates prepared from AMO-1 mice 16 hours after treatment and from MV411 mice 24 hours after treatment.

[10] = tested on: cleaved caspase-3; assay: Cleaved caspase-3 level in treated cancer cell lines; format: cell-based, human; parameters: dose or concentration left out as unconfirmed
Method: as §2, §3

[11] = biological target: BIM-Bcl-xL heterodimer (Homo sapiens, UniProt Q07817); assay: Heterodimer immunoassay, BIM-Bcl-xL in lysates of treated cancer cell lines; format: cell-based; parameters: BIM-Bcl-xL heterodimeric complexes: dose or concentration left out as unconfirmed
BIM-Bcl-xL heterodimer, sequence (Q07817 whole entry, one chain of several): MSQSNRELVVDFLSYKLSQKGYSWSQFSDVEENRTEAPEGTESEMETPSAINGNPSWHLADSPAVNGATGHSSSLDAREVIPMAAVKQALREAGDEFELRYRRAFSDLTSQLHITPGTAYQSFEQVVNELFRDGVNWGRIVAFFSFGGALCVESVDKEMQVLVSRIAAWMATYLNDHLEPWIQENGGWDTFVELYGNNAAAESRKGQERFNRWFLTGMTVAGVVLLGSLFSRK
Method: as §1, with “After incubation with the antibody-biotin conjugate, 40 μL of R-phycoerythrin-labeled streptavidin (Invitrogen) was added, and plates were incubated for 30 minutes with shaking.” left out, “reader. […]” for “reader.”
as §3

[12] = biological target: T2, BIM-Mcl-1 heterodimer (Homo sapiens, UniProt Q07820); assay: Heterodimer immunoassay, BIM-Mcl-1 in lysates of treated cancer cell lines; format: cell-based; parameters: BIM-Mcl-1 heterodimers: dose or concentration left out as unconfirmed
T2 construct: Within cells, anti-apoptotic proteins exist primarily as complexed heterodimers with pro-apoptotic proteins; endogenous in cells; host or cells: AMO-1, MV4-11 (Mv411), HCT116, MOLT-4
T2 sequence (Q07820 whole entry, one chain of several): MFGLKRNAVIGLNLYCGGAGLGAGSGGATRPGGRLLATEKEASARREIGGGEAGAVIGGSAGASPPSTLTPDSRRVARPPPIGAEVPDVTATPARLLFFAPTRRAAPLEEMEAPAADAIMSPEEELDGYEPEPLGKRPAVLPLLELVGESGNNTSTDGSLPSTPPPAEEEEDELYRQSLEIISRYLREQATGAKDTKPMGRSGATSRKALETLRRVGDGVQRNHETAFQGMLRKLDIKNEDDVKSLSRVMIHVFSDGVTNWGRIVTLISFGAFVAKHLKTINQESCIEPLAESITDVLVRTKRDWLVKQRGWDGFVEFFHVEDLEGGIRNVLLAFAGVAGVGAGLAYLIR
Method: as §1, §2, §3

[13] = Mv4-11 cells, treated with vs untreated (FIG. 5D, 5E)
[14] = AMO-1 cells, treated vs untreated (FIG. 5B, 5C)
[15] = HCT116 and MOLT-4 cancer cell lines (FIG. 4D)
[16] = Mv4-11 cells, treated vs untreated (FIG. 5D, 5E)

| SMILES | BAK-BAX oligomerization (mitochondrial poration marker), subsequent caspase-3 activation and cell death [1] | disrupting the balance of BIM complexes and initiating caspase-3 activation and cell death [2] | effectiveness of treatment in multiple myeloma model AMO-1 [3] | IC50 [4] | anti-tumor activity in AMO1 xenografts [5] | activity in MV4-11 human AML xenograft model [6] | BAX-BAK heterodimers ([7]; AMO-1 cells, treated with vs untreated (FIG. 5B)) | BAX-BAK levels [7] | BAX-BAK heterodimers [7, 13] | Bcl-2-BIM complexes [8] | BIM (overall) [9] | cleaved caspase-3 [10, 14] | cleaved caspase-3 [10, 15] | cleaved caspase-3 [10, 16] | BIM-Bcl-xL levels ([11]; HCT116 and MOLT-4 cancer cell lines (FIG. 4A)) | BIM-Bcl-xL heterodimeric complexes ([11]; Mv4-11 cells, treated vs untreated (FIG. 5E)) | BIM-Mcl-1 levels ([12]; AMO-1 and Mv411 cell lines, in vitro (FIG. 3A)) | BIM-Mcl-1 levels ([12]; HCT116 and MOLT-4 cancer cell lines (FIG. 4B)) | BIM-Mcl-1 heterodimers [12, 13] |
| --- | --- | --- | --- | --- | --- | --- | --- | --- | --- | --- | --- | --- | --- | --- | --- | --- | --- | --- | --- |
| CC1(C)CCC(CN2CCN(c3ccc(C(=O)NS(=O)(=O)c4ccc(NCC5CCOCC5)c([N+](=O)[O-])c4)c(Oc4cnc5[nH]ccc5c4)c3)CC2)=C(c2ccc(Cl)cc2)C1 [NSC766270] | did not initiate | equally effective | ineffective | – | – | – | – | – | – | – | – | – | – | – | – | – | – | – | – |
| Cc1c(-c2c(-c3ccc(F)o3)sc3ncnc(O[C@H](Cc4ccccc4OCc4ccnn4CC(F)(F)F)C(=O)O)c23)ccc(OCCN2CCN(C)CC2)c1Cl [S63845] | – | equally effective | – | < 0.1 µM | dose-dependent anti-tumor activity | less potent activity | increase | increased | significant increase | disruption | overall degradation | increase | increased activation | significant increase | – | – | – | – | – |
| CC1(C)CCC(c2ccc(Cl)cc2)=C(CN2CCN(c3ccc(C(=O)NS(=O)(=O)c4ccc(N[C@H](CCN5CCOCC5)CSc5ccccc5)c(S(=O)(=O)C(F)(F)F)c4)cc3)CC2)C1 [novitoclax] | – | – | – | – | – | – | – | increased | increase | – | – | did not lead to a significant increase | increased activation | increase | disrupted | decrease | largely unaffected | increased | increase |
